Results as given in patent publication US20240317777A1, “NOVEL MACROCYCLIC AMINOPYRAZOLE COMPOUNDS AS CDK2 INHIBITORS” (Accutar Biotechnology Inc., priority 2023, published 2024).
Read-outs that look alike come from different tables or passages of the source.

Key:
[1] = other bond
CDK1-CYCLIN B = CDK1-CYCLIN B (Homo sapiens, UniProt P06493); test: CDK protein kinase inhibition by ADP-Glo assay, CDK1-CYCLIN B; format: biochemical; settings: for IC50: ADP-Glo, 1000 μM ATP, read-out: CDK1-CYCLINB, IC50; for CDK2 Fold selectivity, CDK1: CDK2 versus CDK1
Outline: (§1)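 Human CDK/cyclin complexes phosphorylated peptide substrates at 22° C in 100 mM HEPES pH 7.5 with 5 mM MgCl2, 1 mM DTT, 0.1% BSA, 0.01% Triton X-100 and 1000 μM ATP (1% DMSO). ADP formed was detected by ADP-Glo luminescence.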

CDK2-CYCLIN E1 = CDK2-CYCLIN E1 (Homo sapiens, UniProt P24941); test: CDK protein kinase inhibition by ADP-Glo assay, CDK2-CYCLIN E1; format: biochemical; settings: ADP-Glo, 1000 μM ATP, read-out: CDK2-CYCLINE, IC50
Outline: as §1

CDK4-CYCLIN D1 = CDK4-CYCLIN D1 (Homo sapiens, UniProt P11802); test: CDK protein kinase inhibition by ADP-Glo assay, CDK4-CYCLIN D1; format: biochemical; settings: for IC50: ADP-Glo, 1000 μM ATP, read-out: CDK4-CYCLIND1, IC50; for CDK2 Fold selectivity, CDK4: CDK2 versus CDK4
Outline: as §1

CDK6-CYCLIN D3 = CDK6-CYCLIN D3 (Homo sapiens, UniProt Q00534); test: CDK protein kinase inhibition by ADP-Glo assay, CDK6-CYCLIN D3; format: biochemical; settings: for IC50: ADP-Glo, 1000 μM ATP, read-out: CDK6-CYCLIND3, IC50; for CDK2 Fold selectivity, CDK6: CDK2 versus CDK6
Outline: as §1

CDK9-CYCLIN T1 = CDK9-CYCLIN T1 (Homo sapiens, UniProt P50750); test: CDK protein kinase inhibition by ADP-Glo assay, CDK9-CYCLIN T1; format: biochemical; settings: for IC50: ADP-Glo, 1000 μM ATP, read-out: CDK9-CYCLINT1, IC50; for CDK2 Fold selectivity, CDK9: CDK2 versus CDK9
Outline: as §1

[2] = test system: Phospho-Rb (Ser807/811) in OVCAR3 cells; test: Phospho-Rb expression inhibition in OVCAR3 cells quantified by In Cell Western; format: cell-based; settings: Homo sapiens, OVCAR-3, 24 hours, read-out: OVCAR-3 pRb IC50
Outline: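 In-cell western: after 24 h compound exposure at 37° C, fixed OVCAR3 cells co-stained for pRb Ser807/811 (800 nm channel) and total Rb (680 nm channel), imaged by LI-COR Odyssey.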

[3] = test system: CCNE1-amplified OVCAR3 cells; test: Cell growth inhibition of CCNE1-amplified OVCAR3 cells (CellTiter-Glo); format: cell-based; settings: Homo sapiens, OVCAR-3, 144 h, 6 days
Outline: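 Growth read-out was CellTiter-Glo luminescence, taken after 10 min at room temperature at the end of a 6-day compound exposure at 37 °C. Compounds were diluted from DMSO stocks across various concentrations.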

CCNE1-normal SKOV3 cells = test: Cell growth inhibition of CCNE1-normal SKOV3 cells (CellTiter-Glo); format: cell-based; settings: Homo sapiens, SK-OV-3, 144 h, 6 days
Outline: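 Growth was measured by CellTiter-Glo luminescence after 6 days' compound exposure at 37 °C. Cells were plated one day before dosing at 1000 per well in medium with 10% FBS, and compounds were diluted from DMSO stocks.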

Sequence of CDK4-CYCLIN D1 (P11802 whole entry): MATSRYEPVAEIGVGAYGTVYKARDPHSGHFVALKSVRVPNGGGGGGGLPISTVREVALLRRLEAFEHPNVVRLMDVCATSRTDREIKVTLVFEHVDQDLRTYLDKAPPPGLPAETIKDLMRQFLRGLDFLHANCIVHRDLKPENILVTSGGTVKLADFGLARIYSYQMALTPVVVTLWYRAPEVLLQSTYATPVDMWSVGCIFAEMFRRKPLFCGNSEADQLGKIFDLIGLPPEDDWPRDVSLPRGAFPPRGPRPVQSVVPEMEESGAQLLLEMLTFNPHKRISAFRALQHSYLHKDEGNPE
Sequence of CDK4-CYCLIN D1 (P24385 whole entry partner): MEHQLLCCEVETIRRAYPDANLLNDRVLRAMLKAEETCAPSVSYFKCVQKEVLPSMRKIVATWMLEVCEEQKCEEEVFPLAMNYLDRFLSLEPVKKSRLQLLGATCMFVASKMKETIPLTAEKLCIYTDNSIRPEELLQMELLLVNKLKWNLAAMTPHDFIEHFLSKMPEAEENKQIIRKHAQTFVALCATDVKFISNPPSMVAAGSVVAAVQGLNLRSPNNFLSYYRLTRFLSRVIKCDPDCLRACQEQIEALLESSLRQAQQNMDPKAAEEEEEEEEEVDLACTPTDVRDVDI
Sequence of CDK9-CYCLIN T1 (P50750 whole entry): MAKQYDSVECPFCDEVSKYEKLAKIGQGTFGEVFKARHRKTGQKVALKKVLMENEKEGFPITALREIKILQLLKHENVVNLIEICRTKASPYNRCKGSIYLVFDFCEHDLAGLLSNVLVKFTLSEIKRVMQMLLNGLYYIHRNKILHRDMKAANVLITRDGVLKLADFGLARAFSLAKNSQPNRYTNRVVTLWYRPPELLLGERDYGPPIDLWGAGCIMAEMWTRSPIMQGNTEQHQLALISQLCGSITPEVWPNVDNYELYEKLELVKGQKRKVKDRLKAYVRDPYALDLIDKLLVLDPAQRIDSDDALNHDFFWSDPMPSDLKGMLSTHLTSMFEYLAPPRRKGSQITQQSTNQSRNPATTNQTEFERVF
Sequence of CDK9-CYCLIN T1 (O60563 whole entry partner): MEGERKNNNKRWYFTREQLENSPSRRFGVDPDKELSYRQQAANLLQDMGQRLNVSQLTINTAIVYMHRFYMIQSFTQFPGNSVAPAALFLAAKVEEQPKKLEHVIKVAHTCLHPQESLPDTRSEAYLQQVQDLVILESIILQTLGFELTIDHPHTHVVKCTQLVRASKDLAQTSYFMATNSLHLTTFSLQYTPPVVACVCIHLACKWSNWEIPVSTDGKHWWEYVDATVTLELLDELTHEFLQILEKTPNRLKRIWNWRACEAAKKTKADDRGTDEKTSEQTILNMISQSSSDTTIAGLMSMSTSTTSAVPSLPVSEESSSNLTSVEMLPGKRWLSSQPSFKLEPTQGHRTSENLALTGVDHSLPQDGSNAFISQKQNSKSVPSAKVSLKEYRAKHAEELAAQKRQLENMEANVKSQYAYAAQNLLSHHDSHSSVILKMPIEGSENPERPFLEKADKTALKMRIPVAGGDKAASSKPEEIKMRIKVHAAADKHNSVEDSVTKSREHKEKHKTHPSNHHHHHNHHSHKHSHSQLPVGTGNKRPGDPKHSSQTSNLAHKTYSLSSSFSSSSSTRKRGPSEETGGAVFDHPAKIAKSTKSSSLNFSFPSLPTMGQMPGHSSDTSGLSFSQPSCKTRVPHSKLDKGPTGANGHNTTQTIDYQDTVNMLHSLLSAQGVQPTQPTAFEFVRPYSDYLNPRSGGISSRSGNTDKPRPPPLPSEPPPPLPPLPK
Sequence of CDK1-CYCLIN B (P06493 whole entry): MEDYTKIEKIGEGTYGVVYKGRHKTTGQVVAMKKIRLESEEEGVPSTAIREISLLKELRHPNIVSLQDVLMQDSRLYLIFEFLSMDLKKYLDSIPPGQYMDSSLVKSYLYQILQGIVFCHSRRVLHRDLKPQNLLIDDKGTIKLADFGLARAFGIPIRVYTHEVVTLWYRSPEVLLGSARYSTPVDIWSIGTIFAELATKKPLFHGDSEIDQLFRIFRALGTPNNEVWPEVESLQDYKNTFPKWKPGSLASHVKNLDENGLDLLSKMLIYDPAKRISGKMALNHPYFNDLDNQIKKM
Sequence of CDK1-CYCLIN B (P14635 whole entry partner): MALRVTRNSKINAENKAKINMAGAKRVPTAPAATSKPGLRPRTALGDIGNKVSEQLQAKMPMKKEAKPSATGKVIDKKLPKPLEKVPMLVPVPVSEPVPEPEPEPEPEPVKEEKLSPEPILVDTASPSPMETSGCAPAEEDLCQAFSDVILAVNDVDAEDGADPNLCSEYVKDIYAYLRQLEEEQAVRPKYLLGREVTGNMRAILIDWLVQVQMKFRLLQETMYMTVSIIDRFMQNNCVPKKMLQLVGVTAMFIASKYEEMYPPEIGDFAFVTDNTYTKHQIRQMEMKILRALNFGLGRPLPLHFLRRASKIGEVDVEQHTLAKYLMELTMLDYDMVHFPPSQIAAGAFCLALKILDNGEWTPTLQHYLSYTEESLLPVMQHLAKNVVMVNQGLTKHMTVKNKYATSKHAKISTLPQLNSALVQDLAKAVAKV
Sequence of CDK6-CYCLIN D3 (Q00534 whole entry): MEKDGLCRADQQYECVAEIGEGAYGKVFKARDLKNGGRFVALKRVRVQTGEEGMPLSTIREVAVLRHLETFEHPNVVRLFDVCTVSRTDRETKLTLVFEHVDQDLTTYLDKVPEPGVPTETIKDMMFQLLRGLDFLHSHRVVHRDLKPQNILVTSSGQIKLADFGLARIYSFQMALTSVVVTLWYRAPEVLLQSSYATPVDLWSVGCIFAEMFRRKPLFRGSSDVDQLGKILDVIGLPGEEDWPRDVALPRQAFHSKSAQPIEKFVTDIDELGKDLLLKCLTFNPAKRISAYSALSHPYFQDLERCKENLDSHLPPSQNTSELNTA
Sequence of CDK6-CYCLIN D3 (P30281 whole entry partner): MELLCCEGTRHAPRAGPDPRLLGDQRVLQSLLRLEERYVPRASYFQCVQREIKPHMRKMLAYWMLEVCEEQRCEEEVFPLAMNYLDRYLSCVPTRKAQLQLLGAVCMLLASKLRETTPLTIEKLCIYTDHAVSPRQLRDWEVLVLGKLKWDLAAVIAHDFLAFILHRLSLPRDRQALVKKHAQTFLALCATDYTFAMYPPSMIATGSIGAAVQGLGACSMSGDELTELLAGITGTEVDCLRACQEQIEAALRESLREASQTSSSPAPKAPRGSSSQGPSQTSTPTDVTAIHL

CC(C)(C)n1nc2cc1Nc1ccnc(c1)CCCCCNC(=O)O[C@@H]1CC[C@H]2C1
ring closure, yield of all isomers ([1]; from CC(C)(C)n1nc([C@H]2CC[C@@H](OC(=O)Oc3ccc([N+](=O)[O-])cc3)C2)cc1Nc1ccnc(CCCCCN)c1, DIPEA, THF, 2.0 mM, 30.0 °C, 3.0 h): 85%

C[C@@H]1CCCCc2cc(ccn2)Nc2cc(nn2C(C)(C)C)[C@H]2CC[C@H](C2)OC(=O)N1
ring closure, yield of all isomers ([1]; from C[C@@H](N)CCCCc1cc(Nc2cc([C@H]3CC[C@@H](OC(=O)Oc4ccc([N+](=O)[O-])cc4)C3)nn2C(C)(C)C)ccn1, DIPEA, THF, 1.42 mM, 100.0 °C, 3.0 h): 99.5%

C[C@H]1CCCOc2cc(cc(F)n2)Nc2cc(nn2C(C)(C)C)[C@H]2CC[C@H](C2)OC(=O)N1
ring closure, yield of all isomers ([1]; from C[C@H](N)CCCOc1cc(Nc2cc([C@H]3CC[C@@H](OC(=O)Oc4ccc([N+](=O)[O-])cc4)C3)nn2C(C)(C)C)cc(F)n1, DIEA, THF, 1.71 mM, 25.0 °C, 3.0 h): 97.8%

CC(C)(C)n1nc2cc1Nc1ccnc(c1)OC[C@H]1C[C@@H](C1)NC(=O)O[C@H]1C[C@@H]2C[C@H]1F
ring closure, yield of all isomers ([1]; from CC(C)(C)n1nc([C@H]2C[C@@H](F)[C@@H](OC(=O)Oc3ccc([N+](=O)[O-])cc3)C2)cc1Nc1ccnc(OC[C@H]2C[C@H](N)C2)c1, DIEA, THF, 1.7 mM, 60.0 °C, 12.0 h): 37%

C[C@@H]1NC(=O)O[C@@H]2CC[C@@H](C2)c2cc(n(C(C)(C)C)n2)Nc2ccnc(c2)OCCC1(F)F
ring closure, yield of all isomers ([1]; from C[C@H](N)C(F)(F)CCOc1cc(Nc2cc([C@H]3CC[C@@H](OC(=O)Oc4ccc([N+](=O)[O-])cc4)C3)nn2C(C)(C)C)ccn1, DIEA, DMSO, 1.15 mM, 100.0 °C, 16.0 h): 87.3%

CC(C)(C)n1nc2cc1Nc1ccnc(c1)C(F)(F)C[C@H]1C[C@@H](C1)NC(=O)O[C@@H]1CC[C@H]2C1
ring closure, yield of all isomers ([1]; from CC(C)(C)n1nc([C@H]2CC[C@@H](OC(=O)Oc3ccc([N+](=O)[O-])cc3)C2)cc1Nc1ccnc(C(F)(F)C[C@H]2C[C@H](N)C2)c1, DIEA, THF, 3.33 mM, 25.0 °C, 12.0 h): 99.9%

C[C@@H]1NC(=O)O[C@H]2C[C@H](C[C@H]2F)c2cc(n(C(C)(C)C)n2)Nc2ccnc(c2)OCCC1(F)F
ring closure, yield of all isomers ([1]; from C[C@H](N)C(F)(F)CCOc1cc(Nc2cc([C@H]3C[C@@H](F)[C@@H](OC(=O)Oc4ccc([N+](=O)[O-])cc4)C3)nn2C(C)(C)C)ccn1, DIEA, DMSO, 3.13 mM, 100.0 °C, 12.0 h): 88%

C[C@H]1CCCC(F)(F)c2cc(ccn2)Nc2cc(nn2C(C)(C)C)[C@H]2CC[C@H](C2)OC(=O)N1
ring closure, yield of all isomers ([1]; from C[C@H](N)CCCC(F)(F)c1cc(Nc2cc([C@H]3CC[C@@H](OC(=O)Oc4ccc([N+](=O)[O-])cc4)C3)nn2C(C)(C)C)ccn1, DIEA, THF, 1.33 mM, 25.0 °C, 3.0 h): 99.3%

C[C@@H]1NC(=O)O[C@@H]2CC[C@@H](C2)c2cc(n(C(C)(C)C)n2)Nc2ccnc(c2)OCCC1F (some centres unmarked)
ring closure, yield of all isomers ([1]; from C[C@H](N)C(F)CCOc1cc(Nc2cc([C@H]3CC[C@@H](OC(=O)Oc4ccc([N+](=O)[O-])cc4)C3)nn2C(C)(C)C)ccn1, DIEA, DMSO, 1.71 mM, 100.0 °C, 2.0 h): 97%

C[C@H]1CC(F)(F)COc2cc(ccn2)Nc2cc(nn2C(C)(C)C)[C@H]2CC[C@H](C2)OC(=O)N1
ring closure, yield of all isomers ([1]; from C[C@H](N)CC(F)(F)COc1cc(Nc2cc([C@H]3CC[C@@H](OC(=O)Oc4ccc([N+](=O)[O-])cc4)C3)nn2C(C)(C)C)ccn1, DIEA, THF, 1.83 mM, 80.0 °C, 12.0 h): 66.2%

CC(C)(C)n1nc2cc1Nc1cc(nc(C(F)F)c1)OCCCCNC(=O)O[C@@H]1CC[C@H]2C1
ring closure, yield of all isomers ([1]; from CC(C)(C)n1nc([C@H]2CC[C@@H](OC(=O)Oc3ccc([N+](=O)[O-])cc3)C2)cc1Nc1cc(OCCCCN)nc(C(F)F)c1, DIEA, THF, 1.11 mM, 25.0 °C, 12.0 h): 65%

CC(C)(C)n1nc2cc1Nc1cncc(n1)OC[C@H]1C[C@@H](C1)NC(=O)O[C@@H]1CC[C@H]2C1
ring closure, yield of all isomers ([1]; from CC(C)(C)n1nc([C@H]2CC[C@@H](OC(=O)Oc3ccc([N+](=O)[O-])cc3)C2)cc1Nc1cncc(OC[C@H]2C[C@H](N)C2)n1, DIEA, DMSO, 2.3 mM, 100.0 °C, 12.0 h): 38%

C[C@H]1CCCOc2cc(c(F)cn2)Nc2cc(nn2C(C)(C)C)[C@H]2CC[C@H](C2)OC(=O)N1
ring closure, yield of all isomers ([1]; from C[C@H](N)CCCOc1cc(Nc2cc([C@H]3CC[C@@H](OC(=O)Oc4ccc([N+](=O)[O-])cc4)C3)nn2C(C)(C)C)c(F)cn1, DIEA, THF, 1.71 mM, 25.0 °C, 3.0 h): 99.9%

CC1CC23CC(C2)(C3)NC(=O)O[C@@H]2CC[C@@H](C2)c2cc(n(C(C)(C)C)n2)Nc2cc(nc(C(F)F)c2)O1 (some centres unmarked)
ring closure, yield of all isomers ([1]; from CC(CC12CC(N)(C1)C2)Oc1cc(Nc2cc([C@H]3CC[C@@H](OC(=O)Oc4ccc([N+](=O)[O-])cc4)C3)nn2C(C)(C)C)cc(C(F)F)n1, DIEA, THF, 9.15 mM, 80.0 °C, 2.0 h): 84.7%

C[C@H]1CC/C=C/c2cc(ccn2)Nc2cc(nn2C(C)(C)C)[C@H]2CC[C@H](C2)OC(=O)N1
ring closure, yield of all isomers ([1]; from C[C@H](N)CC/C=C/c1cc(Nc2cc([C@H]3CC[C@@H](OC(=O)Oc4ccc([N+](=O)[O-])cc4)C3)nn2C(C)(C)C)ccn1, DIEA, THF, 1.6 mM, 60.0 °C, 2.0 h): 93.9%

C[C@@H]1CC/C=C/c2cc(ccn2)Nc2cc(nn2C(C)(C)C)[C@H]2CC[C@H](C2)OC(=O)N1
ring closure, yield of all isomers ([1]; from C[C@@H](N)CC/C=C/c1cc(Nc2cc([C@H]3CC[C@@H](OC(=O)Oc4ccc([N+](=O)[O-])cc4)C3)nn2C(C)(C)C)ccn1, DIEA, THF, 1.46 mM, 70.0 °C, 12.0 h): 98.6%

CC(C)(C)n1nc2cc1Nc1ccnc(c1)OC[C@H]1C[C@@H](C1)NC(=O)O[C@@H]1CC[C@H]2C1
ring closure, yield of all isomers ([1]; from CC(C)(C)n1nc([C@H]2CC[C@@H](OC(=O)Oc3ccc([N+](=O)[O-])cc3)C2)cc1Nc1ccnc(OC[C@H]2C[C@H](N)C2)c1, DIEA, THF, 1.21 mM, 70.0 °C, 12.0 h): 96.7%

CC1CCCOc2cc(ccn2)Nc2cc(nn2C(C)(C)C)[C@H]2CC[C@H](C2)OC(=O)N1 (some centres unmarked)
ring closure, yield of all isomers ([1]; from CC(N)CCCOc1cc(Nc2cc([C@H]3CC[C@@H](OC(=O)Oc4ccc([N+](=O)[O-])cc4)C3)nn2C(C)(C)C)ccn1, DIPEA, THF, 2.06 mM, 30.0 °C, 24.0 h): 98.5%

C[C@H]1CCCC(F)(F)c2cc(ccn2)Nc2cc(n[nH]2)[C@H]2CC[C@H](C2)OC(=O)N1 [Compound 166, (1^1S,1^3R,9S,Z)-5,5-difluoro-9-methyl-2^1H-12-oxa-3,10-diaza-4(4,2)-pyridina-2(3,5)-pyrazola-1(1,3)-cyclopentanacyclododecaphan-11-one]
IC50 (CDK1-CYCLIN B; Table 25): 10 to 50 nM | IC50 (CDK1-CYCLIN B; Table 31): 10 to 50 nM | CDK2 Fold selectivity, CDK1 (CDK1-CYCLIN B; Table 26): E (E, <20) | CDK2 Fold selectivity, CDK1 (CDK1-CYCLIN B; Table 32): E (E, <20) | IC50 (CDK2-CYCLIN E1; Table 25): ≤ 10 nM | IC50 (CDK2-CYCLIN E1; Table 31): ≤ 10 nM | IC50 (CDK4-CYCLIN D1; Table 25): 50 to 100 nM | IC50 (CDK4-CYCLIN D1; Table 31): 100 to 500 nM | CDK2 Fold selectivity, CDK4 (CDK4-CYCLIN D1; Table 26): C (C, >50 and ≤100) | CDK2 Fold selectivity, CDK4 (CDK4-CYCLIN D1; Table 32): D (D, >20 and ≤50) | IC50 (CDK6-CYCLIN D3; Table 25): 10 to 50 nM | IC50 (CDK6-CYCLIN D3; Table 31): 100 to 500 nM | CDK2 Fold selectivity, CDK6 (CDK6-CYCLIN D3; Table 26): D (D, >20 and ≤50) | CDK2 Fold selectivity, CDK6 (CDK6-CYCLIN D3; Table 32): D (D, >20 and ≤50) | IC50 (CDK9-CYCLIN T1; Table 25): 10 to 50 nM | IC50 (CDK9-CYCLIN T1; Table 31): 10 to 50 nM | CDK2 Fold selectivity, CDK9 (CDK9-CYCLIN T1; Table 26): D (D, >20 and ≤50) | CDK2 Fold selectivity, CDK9 (CDK9-CYCLIN T1; Table 32): E (E, <20) | IC50 [2]: 2 to 10 nM | IC50 [3]: 10 to 50 nM | IC50 (CCNE1-normal SKOV3 cells): 250 to 1250 nM

C[C@H]1OCCCNC(=O)O[C@@H]2CC[C@@H](C2)c2cc([nH]n2)Nc2ccnc1c2 [compound 71]
IC50 (CDK1-CYCLIN B; Table 15): 50 to 100 nM | IC50 (CDK2-CYCLIN E1; Table 15): ≤ 10 nM | IC50 (CDK4-CYCLIN D1; Table 15): 100 to 500 nM | IC50 (CDK6-CYCLIN D3; Table 15): 100 to 500 nM | IC50 (CDK9-CYCLIN T1; Table 15): 100 to 500 nM | IC50 [2]: 2 to 10 nM | IC50 [3]: 10 to 50 nM | IC50 (CCNE1-normal SKOV3 cells): 50 to 250 nM
